The source made the active and inactive calls. The rule behind the calls is not given here.
Legend:
Plasma [1] = test: Induction of platelet aggregation in rat wash platelet at plasma peak concentration of 10 times anti-thrombosis ED50 measured after 10 mins by light transmission aggregometry
Plasma [2] = test: (§1) Anticoagulation activity in human plasma assessed as drug level causing 20 times doubling of APTT preincubated for 2 mins followed by APTT reagent and measured after 3 mins by coagulometric method relative to dHG-5; assay type: functional; settings: time 5 min
[3] = molecular target: T1, Coagulation factor IX/VIII (Homo sapiens) (UniProt P00740+P00451); test: (§2) Inhibition of human citrated plasma iXase (factor 8a-factor 9a complex) preincubated for 2 mins followed by factor 10 addition and measured after 1 min by FXa chromogenic substrate SXa-11 based assay relative to dHG-5; assay type: protein-complex assay; settings: time 3.0 min
Coagulation factor IX [4] = molecular target: T2, Coagulation factor IX (Homo sapiens, UniProt P00740); test: Inhibition of factor 9a (unknown origin) binding to immobilized biotinylated oHG-11 by biolayer interferometry relative to dHG-5
[5] = molecular target: Prothrombin (Homo sapiens) (UniProt P00734); test: Inhibition of factor 2a (unknown origin) at IC90 preincubated for 1 min followed by chromogenic substrate addition and measured for 2 mins in presence of AT-III; settings: time 3.0 min
[6] = molecular target: Coagulation factor X (Homo sapiens) (UniProt P00742); test: Inhibition of factor 10a (unknown origin) at IC50 preincubated for 1 min followed by chromogenic substrate addition and measured for 2 mins; settings: time 3.0 min
[7] = molecular target: Prothrombin (Homo sapiens) (UniProt P00734); test: Inhibition of factor 2a (unknown origin) at IC50 preincubated for 1 min followed by chromogenic substrate addition and measured for 2 mins; settings: time 3.0 min
[8] = molecular target: Coagulation factor XI (Homo sapiens) (UniProt P03951); test: Inhibition of factor 11a (unknown origin) at IC50 using S-2366 as substrate preincubated for 1 min followed by chromogenic substrate addition and measured for 2 mins in presence of AT-III; settings: time 3.0 min
[9] = molecular target: Prothrombin (Homo sapiens) (UniProt P00734); test: Inhibition of factor 2a (unknown origin) at IC50 preincubated for 1 min followed by chromogenic substrate addition and measured for 2 mins in presence of AT-III; settings: time 3.0 min
Rattus norvegicus [10] = test: Antithrombotic activity in thromboplastin and stasis-induced Sprague-Dawley rat deep venous thrombosis model assessed as reduction in venous thrombosis at 1.52 mg/kg, sc administered 1 hr prior to thromboplastin addition for 20 secs followed by establishment of stasis for 20 mins relative to dHG-5; assay type: functional; settings: time 80.33 min, 1.339 h
Plasma [11] = test: Anticoagulation activity in HCII-deficient human plasma preincubated for 2 mins followed by APTT reagent and measured after 3 mins by coagulometric method; assay type: functional, cell-free; settings: time 5.0 min
[12] = molecular target: Coagulation factor X (Homo sapiens) (UniProt P00742); test: Inhibition of factor 10a (unknown origin) at IC90 preincubated for 1 min followed by chromogenic substrate addition and measured for 2 mins in presence of AT-III relative to control; settings: time 3.0 min
Rattus norvegicus [13] = test: Antithrombotic activity in thromboplastin and stasis-induced Sprague-Dawley rat deep venous thrombosis model assessed as reduction in venous thrombosis at 1.52 mg/kg, sc administered 1 hr prior to thromboplastin addition for 20 secs followed by establishment of stasis for 20 mins; assay type: functional; settings: 1.339 h, time 80.33 min
[14] = molecular target: T3, Coagulation factor VII (Homo sapiens) (UniProt P08709); test: Inhibition of factor 7a (unknown origin) at IC50 using pefachrome factor VIIa as substrate preincubated for 1 min followed by chromogenic substrate addition and measured for 2 mins; settings: time 3.0 min
T3 sequence (whole entry): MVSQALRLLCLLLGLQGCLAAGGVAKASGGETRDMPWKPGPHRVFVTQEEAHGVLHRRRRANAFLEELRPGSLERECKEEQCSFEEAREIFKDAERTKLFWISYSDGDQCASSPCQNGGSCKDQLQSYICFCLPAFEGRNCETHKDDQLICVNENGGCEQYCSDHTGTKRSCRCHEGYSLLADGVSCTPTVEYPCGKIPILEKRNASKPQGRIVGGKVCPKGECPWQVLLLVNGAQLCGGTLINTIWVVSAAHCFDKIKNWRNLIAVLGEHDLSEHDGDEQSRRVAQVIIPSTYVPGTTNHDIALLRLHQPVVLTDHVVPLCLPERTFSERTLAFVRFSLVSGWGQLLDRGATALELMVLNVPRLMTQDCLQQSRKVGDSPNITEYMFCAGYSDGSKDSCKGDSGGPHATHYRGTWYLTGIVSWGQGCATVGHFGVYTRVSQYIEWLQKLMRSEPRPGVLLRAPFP

Rattus norvegicus [15] = test: Antithrombotic activity in thromboplastin and stasis-induced Sprague-Dawley rat deep venous thrombosis model assessed as reduction in venous thrombosis by measuring activity potency of oligosaccharides multiplied by the percentage of oligosaccharides in dHG-5 at 1.52 mg/kg, sc administered 1 hr prior to thromboplastin addition for 20 secs followed by establishment of stasis for 20 mins relative …; assay type: functional; settings: time 80.33 min, 1.339 h
[16] = molecular target: T3, Coagulation factor VII (Homo sapiens); test: Inhibition of factor 7a (unknown origin) at IC50 using pefachrome factor VIIa as substrate preincubated for 1 min followed by chromogenic substrate addition and measured for 2 mins in presence of AT-III; settings: time 3.0 min
Plasma [17] = test: Anticoagulation activity in AT-III-deficient human plasma preincubated for 2 mins followed by APTT reagent and measured after 3 mins by coagulometric method; assay type: functional, cell-free; settings: time 5.0 min
Plasma [18] = test: Induction of platelet aggregation in human platelet rich plasma at plasma peak concentration of 10 times anti-thrombosis ED50 measured after 10 mins by light transmission aggregometry
[19] = molecular target: Coagulation factor XI (Homo sapiens) (UniProt P03951); test: Inhibition of factor 11a (unknown origin) at IC50 using S-2366 as substrate preincubated for 1 min followed by chromogenic substrate addition and measured for 2 mins; settings: time 3.0 min
[20] = molecular target: Coagulation factor X (Homo sapiens) (UniProt P00742); test: Inhibition of factor 10a (unknown origin) at IC50 preincubated for 1 min followed by chromogenic substrate addition and measured for 2 mins in presence of AT-III; settings: time 3.0 min
Plasma [21] = test: as §1, with “of APTT by measuring activity potency of oligosaccharides multiplied by the percentage of oligosaccharides in dHG-5 preincubated for” for “of APTT preincubated for”; assay type: functional; settings: time 5 min
Coagulation factor IX [22] = molecular target: T2, Coagulation factor IX; test: Inhibition of factor 9a (unknown origin) binding to immobilized biotinylated oHG-11 assessed as activity potency of oligosaccharides multiplied by the percentage of oligosaccharides in dHG-5 by biolayer interferometry relative to dHG-5
[23] = molecular target: T4, Coagulation factor XII (Homo sapiens) (UniProt P00748); test: Inhibition of factor 12a (unknown origin) at IC50 using kallikrein chromogenic substrate preincubated for 1 min followed by chromogenic substrate addition and measured for 2 mins; settings: time 3.0 min
T4 sequence (whole entry): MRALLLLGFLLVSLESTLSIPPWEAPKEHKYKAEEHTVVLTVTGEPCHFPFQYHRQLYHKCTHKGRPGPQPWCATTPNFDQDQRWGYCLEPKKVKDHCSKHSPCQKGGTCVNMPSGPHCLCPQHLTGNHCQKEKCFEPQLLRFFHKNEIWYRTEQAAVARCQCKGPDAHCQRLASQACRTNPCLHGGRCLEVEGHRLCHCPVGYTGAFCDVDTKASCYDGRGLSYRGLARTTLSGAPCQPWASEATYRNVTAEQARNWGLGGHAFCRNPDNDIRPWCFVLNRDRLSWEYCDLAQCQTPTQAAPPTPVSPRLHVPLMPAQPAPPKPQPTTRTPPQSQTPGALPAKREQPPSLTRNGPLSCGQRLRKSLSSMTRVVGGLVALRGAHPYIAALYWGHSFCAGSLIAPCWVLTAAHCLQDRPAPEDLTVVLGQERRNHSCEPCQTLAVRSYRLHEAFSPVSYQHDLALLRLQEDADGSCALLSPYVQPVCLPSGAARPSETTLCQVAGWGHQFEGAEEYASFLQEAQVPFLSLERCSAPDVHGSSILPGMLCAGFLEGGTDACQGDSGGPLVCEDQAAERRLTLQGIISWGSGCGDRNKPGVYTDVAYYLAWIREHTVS

[24] = molecular target: Coagulation factor XI (Homo sapiens) (UniProt P03951); test: Inhibition of factor 11a (unknown origin) at IC90 using S-2366 as substrate preincubated for 1 min followed by chromogenic substrate addition and measured for 2 mins in presence of AT-III; settings: time 3.0 min
[25] = molecular target: T4, Coagulation factor XII (Homo sapiens); test: Inhibition of factor 12a (unknown origin) at IC50 using kallikrein chromogenic substrate preincubated for 1 min followed by chromogenic substrate addition and measured for 2 mins in presence of AT-III; settings: time 3.0 min
[26] = molecular target: T1, Coagulation factor IX/VIII (Homo sapiens); test: as §2, with “complex) assessed as activity potency of oligosaccharides multiplied by the percentage of oligosaccharides in dHG-5” for “complex)”; assay type: protein-complex assay; settings: time 3.0 min

Chain of Coagulation factor X (Homo sapiens) (P00742 41-179 limits assumed): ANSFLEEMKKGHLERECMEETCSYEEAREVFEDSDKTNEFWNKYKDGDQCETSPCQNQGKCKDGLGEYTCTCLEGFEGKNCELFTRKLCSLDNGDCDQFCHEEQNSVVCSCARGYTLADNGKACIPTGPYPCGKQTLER
Chain of Coagulation factor X (Homo sapiens) (P00742 235-488 limits assumed): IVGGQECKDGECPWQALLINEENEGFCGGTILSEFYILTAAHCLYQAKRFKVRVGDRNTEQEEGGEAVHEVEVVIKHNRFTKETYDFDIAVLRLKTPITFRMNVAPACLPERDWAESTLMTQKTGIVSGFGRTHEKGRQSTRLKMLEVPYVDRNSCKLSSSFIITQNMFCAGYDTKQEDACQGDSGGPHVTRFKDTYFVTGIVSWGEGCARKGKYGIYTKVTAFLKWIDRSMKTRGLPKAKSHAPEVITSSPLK
Chain of Coagulation factor XI (Homo sapiens) (P03951 19-387 limits assumed): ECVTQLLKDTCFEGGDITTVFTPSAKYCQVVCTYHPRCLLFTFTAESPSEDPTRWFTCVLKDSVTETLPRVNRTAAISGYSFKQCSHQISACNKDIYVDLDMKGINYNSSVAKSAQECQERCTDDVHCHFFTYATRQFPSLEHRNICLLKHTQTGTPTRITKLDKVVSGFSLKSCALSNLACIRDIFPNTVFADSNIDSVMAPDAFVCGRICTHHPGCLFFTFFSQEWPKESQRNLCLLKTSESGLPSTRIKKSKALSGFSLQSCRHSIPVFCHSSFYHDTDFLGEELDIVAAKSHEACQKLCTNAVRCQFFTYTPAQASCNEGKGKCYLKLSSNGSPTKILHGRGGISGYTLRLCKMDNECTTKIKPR
Chain of Coagulation factor XI (Homo sapiens) (P03951 388-625 limits assumed): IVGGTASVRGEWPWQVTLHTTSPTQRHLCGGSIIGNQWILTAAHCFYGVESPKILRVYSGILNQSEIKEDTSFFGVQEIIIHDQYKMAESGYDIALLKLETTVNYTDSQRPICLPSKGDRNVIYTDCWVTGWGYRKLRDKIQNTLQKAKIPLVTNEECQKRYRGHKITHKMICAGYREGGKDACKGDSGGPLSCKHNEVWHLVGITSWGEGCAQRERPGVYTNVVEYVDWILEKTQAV
T2 sequence (P00740 47-191 limits assumed): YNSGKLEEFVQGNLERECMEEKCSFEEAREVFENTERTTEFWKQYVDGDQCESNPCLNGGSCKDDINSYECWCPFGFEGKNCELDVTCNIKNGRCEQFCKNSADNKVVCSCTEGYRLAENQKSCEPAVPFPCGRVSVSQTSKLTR
T2 sequence (P00740 227-461 limits assumed): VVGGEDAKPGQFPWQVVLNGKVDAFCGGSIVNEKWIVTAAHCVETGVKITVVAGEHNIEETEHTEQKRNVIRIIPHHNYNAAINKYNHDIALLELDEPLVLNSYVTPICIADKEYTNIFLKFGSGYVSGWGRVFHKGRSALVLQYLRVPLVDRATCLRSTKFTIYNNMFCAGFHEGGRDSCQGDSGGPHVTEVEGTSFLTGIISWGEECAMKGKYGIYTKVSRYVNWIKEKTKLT

## CC(=O)N[C@H]1[C@H](O[C@@H]([C@H](O[C@@H]2O[C@@H](C)[C@@H](OS(=O)(=O)[O-])[C@@H](OS(=O)(=O)O)[C@@H]2O)[C@@H](O)CO)[C@H](O)C(=O)[O-])O[C@H](COS(=O)(=O)[O-])[C@H](OS(=O)(=O)[O-])[C@@H]1O[C@@H]1O[C@H](C(=O)[O-])[C@@H](O[C@@H]2O[C@H](COS(=O)(=O)[O-])[C@H](OS(=O)(=O)[O-])[C@H](O[C@@H]3O[C@H](C(=O)[O-])[C@@H](O[C@@H]4O[C@H](COS(=O)(=O)[O-])[C@H](OS(=O)(=O)[O-])[C@H](O[C@@H]5O[C@H](C(=O)[O-])[C@@H](O[C@@H]6O[C@H](COS(=O)(=O)[O-])[C@H](OS(=O)(=O)[O-])[C@H](O[C@@H]7O[C@H](C(=O)[O-])[C@@H](O[C@@H]8O[C@H](COS(=O)(=O)[O-])[C@H](OS(=O)(=O)[O-])[C@H](O[C@@H]9O[C@H](C(=O)[O-])[C@@H](O[C@@H]%10O[C@H](COS(=O)(=O)[O-])[C@H](OS(=O)(=O)[O-])[C@H](O[C@@H]%11O[C@H](C(=O)[O-])[C@@H](O[C@@H]%12O[C@H](COS(=O)(=O)[O-])[C@H](OS(=O)(=O)[O-])[C@H](O[C@@H]%13O[C@H](C(=O)[O-])[C@@H](O[C@@H]%14O[C@H](COS(=O)(=O)[O-])[C@H](OS(=O)(=O)[O-])[C@H](O[C@@H]%15O[C@H](C(=O)[O-])[C@@H](O[C@@H]%16O[C@H](COS(=O)(=O)[O-])[C@H](OS(=O)(=O)[O-])[C@H](O[C@@H]%17OC(C(=O)O)=C[C@H](O[C@@H]%18O[C@@H](C)[C@@H](OS(=O)(=O)[O-])[C@@H](OS(=O)(=O)O)[C@@H]%18O)[C@H]%17O)[C@H]%16NC(C)=O)[C@H](O[C@@H]%16O[C@@H](C)[C@@H](OS(=O)(=O)[O-])[C@@H](OS(=O)(=O)O)[C@@H]%16O)[C@H]%15O)[C@H]%14NC(C)=O)[C@H](O[C@@H]%14O[C@@H](C)[C@@H](OS(=O)(=O)[O-])[C@@H](OS(=O)(=O)O)[C@@H]%14O)[C@H]%13O)[C@H]%12NC(C)=O)[C@H](O[C@@H]%12O[C@@H](C)[C@@H](OS(=O)(=O)[O-])[C@@H](OS(=O)(=O)O)[C@@H]%12O)[C@H]%11O)[C@H]%10NC(C)=O)[C@H](O[C@@H]%10O[C@@H](C)[C@@H](OS(=O)(=O)[O-])[C@@H](OS(=O)(=O)O)[C@@H]%10O)[C@H]9O)[C@H]8NC(C)=O)[C@H](O[C@@H]8O[C@@H](C)[C@@H](OS(=O)(=O)[O-])[C@@H](OS(=O)(=O)O)[C@@H]8O)[C@H]7O)[C@H]6NC(C)=O)[C@H](O[C@@H]6O[C@@H](C)[C@@H](OS(=O)(=O)[O-])[C@@H](OS(=O)(=O)O)[C@@H]6O)[C@H]5O)[C@H]4NC(C)=O)[C@H](O[C@@H]4O[C@@H](C)[C@@H](OS(=O)(=O)[O-])[C@@H](OS(=O)(=O)O)[C@@H]4O)[C@H]3O)[C@H]2NC(C)=O)[C@H](O[C@@H]2O[C@@H](C)[C@@H](OS(=O)(=O)[O-])[C@@H](OS(=O)(=O)O)[C@@H]2O)[C@H]1O.[Na+].[Na+].[Na+].[Na+].[Na+].[Na+].[Na+].[Na+].[Na+].[Na+].[Na+].[Na+].[Na+].[Na+].[Na+].[Na+].[Na+].[Na+].[Na+].[Na+].[Na+].[Na+].[Na+].[Na+].[Na+].[Na+].[Na+].[Na+].[Na+].[Na+].[Na+].[Na+].[Na+].[Na+].[Na+].[Na+].[Na+]
Plasma [1]
  Activity: Not Active
Plasma [2]
  Ratio: 426.19 U
[3]
  Ratio: 478 U
Coagulation factor IX [4]
  Ratio: 151 U
[5]
  inhibition: Active
[6]
  inhibition: inactive
[7]
  inhibition: inactive
[8]
  inhibition: inactive
[9]
  inhibition: inactive
Rattus norvegicus [10]
  Ratio: 233.18 U
Plasma [11]
  Activity: Active
[12]
  inhibition: inactive
Rattus norvegicus [13]
  inhibition in vivo at 1.52 mg/kg: 36.4%
[14]
  inhibition (active/not active): inactive
Rattus norvegicus [15]
  Ratio: 7 U
[16]
  inhibition: inactive
Plasma [17]
  Activity: Active
Plasma [18]
  Activity: Not Active
[19]
  inhibition: inactive
[20]
  inhibition: inactive
Plasma [21]
  Ratio: 12.57 U
Coagulation factor IX [22]
  Ratio: 4.46 U
[23]
  inhibition: inactive
[24]
  inhibition: Active
[25]
  inhibition: inactive
[26]
  Ratio: 14.1 U

Source: ChEMBL document CHEMBL4765450, “The components and activities analysis of a novel anticoagulant candidate dHG-5” (Eur J Med Chem, 2020)
